In brackets after ≈: the same amount, converted by molar mass. Like-named read-outs stand apart in the source and are kept apart here. Positions of bridges follow the written chain, without caps; N, C: chain ends. Residues, ends and D or L forms follow the SMILES beside them.
Key:
M. bovis BCG Pasteur = settings: Table IV; REMA, 90% growth inhibition
[1] = system: Acinetobacter baumannii (CIP 103572); experiment: MIC, broth microdilution; type: cell-based
[2] = system: Staphylococcus aureus (ATCC 6538P); experiment: MIC, broth microdilution; type: cell-based
V. diabolicus = experiment: Scanning electron microscopy of treated bacteria; type: cell-based, Vibrio diabolicus; settings: FIG. 9
Text: (§1) The arrows show pore formed through the membrane. For V. diabolicus, despite the results of FIG. 3, is seems that Michelicin has a pore-forming activity on these bacteria.

S. aureus (Pasteur) = experiment: MIC, broth microdilution; type: cell-based, Staphylococcus aureus
[3] = system: B. subtilis nisin resistant (DSMZ 347); settings: Table IV
[4] = system: Burkholderia cepacia (DSM 7288); experiment: MIC, broth microdilution; type: cell-based
[5] = system: Helicobacter pylori (ATCC 43504); experiment: MIC, broth microdilution; type: cell-based
[6] = system: Mycobacterium tuberculosis mc^26230
V. alginolyticus = experiment: Scanning electron microscopy of treated bacteria; type: cell-based, Vibrio alginolyticus; settings: FIG. 9
Text: as §1

[7] = system: Pseudomonas aeruginosa (ATCC 9027); experiment: MIC, broth microdilution; type: cell-based; settings: Table IV
Serratia marcescens = experiment: MIC, broth microdilution; type: cell-based
Pseudomonas sp. = experiment: MIC, broth microdilution; type: cell-based; settings: Table III; MHB saline 565 mM NaCl
Experimental: (§2) To standardize the bacterial cell suspension for assay of antibacterial activity, some colonies of each strain grown overnight on MHA (Mueller Hinton Agar. ROTH) plates were suspended in MHB (Mueller Hinton Broth. ROTH) or MHB saline (Mueller Hinton Broth containing 565 mM NaCl) and incubated at 37° C. or 30° C. until visible turbid. This log-phase inoculum was diluted 1:100 in the same culture media. Using sterile 96-well microtiter plates (CELLSTAR. Greiner bio-one), serial 2-fold dilutions (40 to 0.78 μM) of each peptide were prepared in cation-adjusted acetic acid 0.02% with 0.4% BSA (Bovin Serum Albumin fraction V. Boehringer) at a volume of 10 μL/well. Each well was inoculated with 100 μL of the standardized bacterial inoculum, corresponding to a final test concentration of about 10^5 CFU/mL. Antimicrobial activities were expressed as the MIC (Minimal Inhibitory Concentration), the lowest concentration of peptide at which 100% inhibition of microbial growth was observed after 24 h of incubation at 37° C. or 30° C. by measuring OD600 in a microtiter plate reader. The minimal bactericidal concentration (MBC) was defined as the peptide concentration where no colony growth was observed.

[8] = system: Escherichia coli (ATCC 8739); experiment: MIC, broth microdilution; type: cell-based
[9] = system: E. coli carbapenem- resistant (DSMZ 22314)
[10] = system: P. aeruginosa Fluoroquinolone resistant (CIP 107398); experiment: MIC, broth microdilution; type: cell-based, Pseudomonas aeruginosa
[11] = system: V. alginolyticus (MPV19 IFREMER); experiment: MIC, broth microdilution; type: cell-based, Vibrio alginolyticus
E. coli (D31 Pasteur) = experiment: MIC, broth microdilution; type: cell-based, Escherichia coli; settings: Table IV
Experimental: as §2
(§3) The same experiments as described in 1) were performed. For the evaluation of antimicrobial activity against some other strains, a resazurin microtiter assay was used as explained hereinafter.

[12] = system: A. baumannii antibiotic resistant (CIP 110431)
Pseudomonas sp biofilm = experiment: Biofilm formation assay (crystal violet); type: cell-based; settings: 20 μM peptide, 2 h at 37° C. on 48 h biofilm; untreated culture 0.95
Experimental: Overnight cultures of V. diabolicus and Pseudomonas sp (37° C., 200 rpm) were diluted to an OD600 of 0.1 in MHB medium and 200 μL aliquots of the suspensions were introduced into the wells of a 96 microtiter plates (Nunc). Plates were then incubated at 37° C. without shaking for 48 h. After removal of the standing culture, the wells were washed with MHB medium and Michelicin, Arenicin and Alvinellacin were added, respectively, at a final concentration of 20 μM in MHB. The treatment was performed during 2 h at 37° C. Wells were then washed three times with distilled water and the remaining attached bacteria were fixed with 99% methanol per well for 20 min at room temperature. Afterward, methanol was removed and plates were air-dried. Biofilms were stained with 300 μL of 1% crystal violet (v/v) for 20 min at room temperature, before the residual stain was removed. After washing, the crystal violet bound to the adherent cells was solubilized with 300 μL of 100% ethanol and absorbance was measured at 595 nm (TECAN, sunrise). Sterile medium served as negative control. It is clear on the view of FIG. 3 that Michelicin has a greater antimicrobial activity on a biofilm of Pseudomonoas sp strains than Alvinellacin. For Pseudomonas sp, OD595 is equal to 0.6 when treated with Michelicin, equal to 0.55 when treated with Arenicin and equal to 0.65 when treated with Alvinellacin. […]

[13] = system: M. abscessus R (CIP104537^TR); settings: Table IV; REMA, 90% growth inhibition
[14] = system: Bacillus subtilis (ATCC 6633); experiment: MIC, broth microdilution; type: cell-based; settings: Table IV
Experimental: as §2, §3

[15] = system: Salmonella enterica (CIP 80.39); experiment: MIC, broth microdilution; type: cell-based; settings: Table IV
Experimental: as §2, §3

[16] = system: Enterococcus faecalis Vancomycin-resistant (DSMZ 13591); experiment: MIC, broth microdilution; type: cell-based
[17] = system: S. aureus methicillin resistant USA300 (ATCC BAA-1717); experiment: MIC, broth microdilution; type: cell-based, Staphylococcus aureus
[18] = system: Klebsiella pneumoniae carbapenem-resistant (DSMZ 26371); experiment: MIC, broth microdilution; type: cell-based
Jurkat human cells = settings: cited from earlier work
[19] = Cytotoxicity, resazurin cell viability; type: cell-based, human; settings: human
Experimental: The toxicity of Michelicin on human cells was tested as previously described (Borie et al., 2017; Oyama et al., 2017). Briefly, human cells were cultured in Dulbecco's modified essential medium (DMEM) supplemented with 10% fetal calf serum (FCS), 1% L-glutamine and 1% antibiotics (all from Invitrogen). Cells were routinely grown in onto 25 cm^2 flasks maintained in a 5% CO2 incubator at 37° C. For toxicity assay, cells grown on 25 cm^2 flasks were detached using trypsin-EDTA solution (Thermofisher) and seeded into 96-well cell culture plates (Greiner Bio-one) at approximately 10^4 cells per well (counted using Mallasez's chamber). The cells were grown at 37° C. in a 5% CO2 incubator until they reached confluence (approximately 48-72 h of seeding). Wells were then aspirated and increasing concentrations of AMP were added to the cells and incubated for a further 48 h at 37° C. in a 5% CO2 incubator. The wells were then emptied, and cell viability was evaluated using resazurin based in vitro toxicity assay kit (Sigma-Aldrich) following manufacturer's instructions. Briefly, resazurin stock solution was diluted 1:100 in sterile PBS containing calcium and magnesium (PBS++, pH 7.4) and emptied wells were filled with 100 μL of the resazurin diluted solution. After 4 h incubation at 37° C. with the peptide treated cells, fluorescence intensity was measured using microplate reader (SynerMix, Bioteck) (excitation wavelength of 530 nm/emission wavelength of 590 nm). The fluorescence values were normalized by the controls and expressed as percentage of cell viability. The IC50 values of tested AMP on cell viability (i.e. the concentration of peptides causing a reduction of 50% of the cell viability) were calculated using GraphPad® Prism 7 software. Two cell lines were tested: Human Bronchial Epithelial Cell Line (BEAS; ATCC CRL-9609) and Human umbilical vein endothelial cell (HUVEC).

CSCC[C@@H]1NC(=O)[C@@H]2CSSC[C@H](NC(=O)[C@H](CCCNC(=N)N)NC(=O)[C@H]([C@@H](C)O)NC(=O)[C@H](Cc3ccc(O)cc3)NC(=O)[C@@H](NC(=O)CNC(=O)[C@@H](N)CCCNC(=N)N)CSSC[C@@H](C(=O)N[C@H](C(=O)O)[C@@H](C)O)NC(=O)[C@H](C(C)C)NC(=O)[C@H](CCCNC(=N)N)NC1=O)C(=O)N[C@@H](Cc1c[nH]c3ccccc13)C(=O)N[C@@H](CCCCN)C(=O)N[C@@H](C(C)C)C(=O)NCC(=O)N[C@@H](CCCNC(=N)N)C(=O)N[C@@H](CC(N)=O)C(=O)NCC(=O)N[C@@H](CCCNC(=N)N)C(=O)N[C@@H](C(C)C)C(=O)N2 [Alvinellacin] (H-RGCYTRCWKVGRNGRVCMRVCT-OH; disulfide 3-21, 7-17; N-terminus and C-terminus assumed)
MIC (M. bovis BCG Pasteur): 12.0 to 21.4 µM | MIC ([1]; Table IV): 1.25 to 2.5 µM | MIC ([2]; Table IV): 2.5 to 5 µM | Membrane damage seen by scanning electron microscopy (V. diabolicus): able to damage | MIC (S. aureus (Pasteur); Table IV): 1.25 to 2.5 µM | MIC [3]: 0.625 to 1.25 µM | MIC ([4]; Table IV): 10 µM (≈ 26 µg/mL) | MIC ([5]; Table IV): 1.25 to 2.5 µM | MIC (V. diabolicus (HE 800)): 2.5 to 5 µM | MIC with 565 mM NaCl (V. diabolicus (HE 800)): 2.5 to 5 µM | MIC [6]: 16.0 to 21.5 µM | Membrane damage seen by scanning electron microscopy (V. alginolyticus): able to damage | MIC [7]: 1.25 to 2.5 µM | MIC (Bacillus megaterium): 0.15 to 0.31 µM | MIC with 565 mM NaCl (Bacillus megaterium): 2.5 to 5 µM | MIC (Serratia marcescens; Table IV): >50 µM | MIC with 565 mM NaCl (Pseudomonas sp.): 5 to 10 µM | MIC ([8]; Table IV): 1.25 to 2.5 µM | MIC ([9]; Table IV): 0.625 to 1.25 µM | MIC (Vibrio alginolyticus): 0.07 to 0.15 µM | MIC with 565 mM NaCl (Vibrio alginolyticus): 0.07 to 0.15 µM | MIC (Vibrio alginolyticus; 24 h): 0.07 to 0.15 µM | MIC ([10]; Table IV): 1.25 to 2.5 µM | MIC ([11]; Table III, MHB): 0.07 to 0.15 µM | MIC with 565 mM NaCl ([11]; Table III, MHB saline 565 mM NaCl): 0.62 to 1.25 µM | MIC ([11]; Table IV): 0.07 to 0.15 µM | MIC (E. coli (D31 Pasteur)): 0.31 to 0.62 µM | MIC ([12]; Table IV): 0.625 to 1.25 µM | Biofilm OD595 after treatment (Pseudomonas sp biofilm): 0.65 | MIC [13]: 17.0 to 17.8 µM | MIC [14]: 0.625 to 1.25 µM | MIC [15]: 0.625 to 1.25 µM | MIC ([16]; Table IV): 20 to 40 µM | MIC ([17]; Table IV): 2.5 to 5 µM | MIC ([18]; Table IV): 1.25 to 2.5 µM

CC(C)C[C@@H]1NC(=O)[C@H](C(C)C)NC(=O)CNC(=O)[C@H](CCCNC(=N)N)NC(=O)[C@H](C(C)C)NC(=O)[C@H](CCCNC(=N)N)NC(=O)[C@H](C(C)C)NC(=O)[C@H](Cc2ccc(O)cc2)NC(=O)[C@H](C)NC(=O)[C@H](Cc2ccc(O)cc2)NC(=O)[C@H](C(C)C)NC(=O)[C@@H](NC(=O)[C@H](Cc2c[nH]c3ccccc23)NC(=O)[C@@H](N)CCCNC(=N)N)CSSC[C@@H](C(=O)N[C@@H](Cc2c[nH]c3ccccc23)C(=O)O)NC(=O)[C@H](CCCNC(=N)N)NC(=O)[C@H](CCCNC(=N)N)NC(=O)[C@H](Cc2ccc(O)cc2)NC(=O)[C@H](CCCNC(=N)N)NC(=O)[C@H](C(C)C)NC1=O [Arenicin] (H-RWCVYAYVRVRGVLVRYRRCW-OH; disulfide 3-20)
MIC ([1]; CIP 103572): 1.25 to 2.5 µM | MIC ([2]; ATCC 6538): 1.25 to 2.5 µM | MIC (S. aureus (Pasteur); Pasteur): 1.25 to 2.5 µM | MIC ([4]; DSM 7288): 25 µM (≈ 69 µg/mL) | MIC ([5]; ATCC 43504): 1.25 to 2.5 µM | Cytotoxicity towards Jurkat human cells (Jurkat human cells): cytotoxic | MIC (V. diabolicus (HE 800)): 1.25 to 2.5 µM | MIC with 565 mM NaCl (V. diabolicus (HE 800)): 10 to 20 µM | MIC [6]: 7.1 to 12.2 µM | MIC (Bacillus megaterium): 0.07 to 0.15 µM | MIC with 565 mM NaCl (Bacillus megaterium): 20 to 40 µM | MIC (Serratia marcescens): >50 µM | MIC ([8]; ATCC 8739): 2.5 to 5 µM | MIC ([9]; DSMZ 22314): 2.5 to 5 µM | MIC (Vibrio alginolyticus): 0.15 to 0.31 µM | MIC with 565 mM NaCl (Vibrio alginolyticus): 0.07 to 0.15 µM | MIC (Vibrio alginolyticus; 24 h): 0.15 to 0.31 µM | MIC ([10]; CIP 107398): 1.25 to 2.5 µM | MIC [11]: 0.15 to 0.31 µM | MIC with 565 mM NaCl [11]: 2.5 to 5 µM | MIC ([12]; CIP 110431): 20 to 40 µM | Biofilm OD595 after treatment (Pseudomonas sp biofilm): 0.55 | viability at 48 h, 80 µM ([19]; BEAS human bronchial epithelial cells (ATCC CRL-9609)): 95% | viability at 48 h, 80 µM ([19]; HUVEC (human umbilical vein endothelial cells)): 40% | MIC ([16]; DSMZ 13591): 1.25 to 2.5 µM | MIC ([17]; USA300): 5 to 10 µM | MIC ([18]; DSMZ 26371): 1.25 to 2.5 µM | MIC (M. smegmatis mc^2155): 0.7 to 10 µM

Source: patent publication US20250051403A1, “ANTIMICROBIAL PEPTIDES, VARIANTS AND CHEMICAL ANALOGUES THEREOF AND THEIR USES” (priority 2021, published 2025)
